From PMC7464788, “Modification and Targeted Design of N-Terminal Truncates Derived from Brevinin with Improved Therapeutic Efficacy” (Biology, 2020)
In brackets after ≈: the same amount, converted by molar mass. Several values for one entry are separate records, joined by “and”; a condition that tells them apart may be missing. Equal values may be shown once. Positions of bridges follow the written chain, without caps; N, C: chain ends. Residues, ends and D or L forms follow the SMILES beside them.

How the values were obtained:
[1] = tested on: Candida albicans (NCYC1467); assay type: cell-based
Protocol: (§1) The antimicrobial assay was carried out to detect the minimum inhibitory concentration (MIC) and the minimum bactericidal concentration (MBC) of each peptide on the microbes as described previously. Seven different microorganisms were used in the assay: Gram-positive bacteria Staphylococcus aureus (NCTC10788), Enterococcus faecalis (NCTC12697), and methicillin-resistant S. aureus (MRSA) (NCTC12493); Gram-negative bacteria Escherichia coli (NCTC10418), Pseudomonas aeruginosa (ATCC27853), and Klebsiella pneumoniae (ATCC 43816); and fungi Candida albicans (NCYC1467). Bacterial strains were inoculated and grown to mid-log phase in fresh Mueller Hinton broth (MHB) at 37 °C for overnight, then bacteria inoculum suspensions were subcultured until reaching the logarithmic growth phase by measuring OD of the cultures at wavelength 550 nm. Then, 99 µL bacteria and 1 µL peptide solution were mixed in the 96-wells microplate. For positive and negative controls, the bacteria were incubated with antibiotics (Norfloxacin for Gram-positive bacteria and Gram-negative bacteria; Amphotericin B for fungi) solution and MHB medium, respectively. Experiments were repeated five times in five replicates.

[2] = tested on: Enterococcus faecalis (NCTC12697); assay type: cell-based
Protocol: as §1

[3] = tested on: Escherichia coli (NCTC10418); assay type: cell-based
Protocol: as §1

[4] = tested on: Klebsiella pneumoniae (ATCC 43816); assay type: cell-based
Protocol: as §1

[5] = tested on: Pseudomonas aeruginosa (ATCC27853); assay type: cell-based
Protocol: as §1

[6] = tested on: Staphylococcus aureus (NCTC10788); assay type: cell-based
Protocol: as §1

[7] = tested on: methicillin-resistant S. aureus (MRSA) (NCTC12493); assay type: cell-based, Staphylococcus aureus
Protocol: as §1

horse erythrocytes = experiment: Haemolytic assay; assay type: cell-based; settings: 2% (v/v) horse red blood cells, 37 °C, 2 h; 1% Triton-X 100 positive control; three times in five replicates
Protocol: The haemolytic assay was carried out to detect the cytotoxicity of each peptide to erythrocytes obtained from fresh defibrinated horse blood as described before. An appropriate volume of horse blood solution was collected via washing and transferring until the supernatant was clear. Then, 2% (v/v) suspension of red blood cells were incubated with peptide at 37 °C for 2 h. For positive and negative controls, the red blood cells were incubated with 1% (v/v) Triton-X 100 and Phosphate-buffered saline (PBS) solution, respectively. The 10% of maximal haemolysis concentration (HC10, μM) was utilised to assess the haemolytic potential. Experiments were repeated three times in five replicates.

Which results are given for CC[C@H](C)[C@@H]1NC(=O)[C@H](C)NC(=O)[C@@H](NC(=O)[C@H](Cc2ccccc2)NC(=O)[C@@H](NC(=O)[C@H](CCCCN)NC(=O)[C@H](Cc2c[nH]c3ccccc23)NC(=O)[C@@H]2CCCN2C(=O)[C@H](Cc2c[nH]c3ccccc23)NC(=O)[C@H](Cc2ccccc2)NC(=O)[C@@H](N)CCCCN)[C@@H](C)CC)CSSC[C@@H](C(=O)O)NC(=O)[C@H](CCCCN)NC(=O)[C@H](CCCCN)NC(=O)[C@H]([C@@H](C)O)NC1=O [KW^3,5B2] (H-KFWPWKIFCAITKKC-OH; disulfide 9-15)?
MBC C. albicans [1]: 32 µM (≈ 60.7 µg/mL); MIC C. albicans [1]: 8 µM (≈ 15.2 µg/mL); MBC E. faecalis [2]: 256 µM (≈ 486 µg/mL); MIC E. faecalis [2]: 256 µM (≈ 486 µg/mL); MBC E. coli [3]: 32 µM (≈ 60.7 µg/mL); MIC E. coli [3]: 16 µM (≈ 30.4 µg/mL); MBC K. pneumoniae [4]: 64 µM (≈ 121 µg/mL); MIC K. pneumoniae [4]: 32 µM (≈ 60.7 µg/mL); MBC P. aeruginosa [5]: 128 µM (≈ 243 µg/mL); MIC P. aeruginosa [5]: 64 µM (≈ 121 µg/mL); MBC S. aureus [6]: 16 µM (≈ 30.4 µg/mL); MBC MRSA [7]: 32 µM (≈ 60.7 µg/mL); MIC MRSA [7]: 8 µM (≈ 15.2 µg/mL); HC10 (concentration causing 10% red cell lysis) (horse erythrocytes): 32.07 µM

With CC[C@H](C)[C@@H]1NC(=O)[C@H](C)NC(=O)[C@@H](NC(=O)[C@H](Cc2ccccc2)NC(=O)[C@H](Cc2c[nH]c3ccccc23)NC(=O)[C@H](CCCCN)NC(=O)[C@H](Cc2c[nH]c3ccccc23)NC(=O)[C@@H]2CCCN2C(=O)[C@H](CC(C)C)NC(=O)[C@H](Cc2ccccc2)NC(=O)[C@@H](N)CCCCN)CSSC[C@@H](C(=O)O)NC(=O)[C@H](CCCCN)NC(=O)[C@H](CCCCN)NC(=O)[C@H]([C@@H](C)O)NC1=O [KW^5,7B2] (H-KFLPWKWFCAITKKC-OH; disulfide 9-15) as the compound, how does the “MBC C. albicans” value [1] read?
Its value is 32 µM (≈ 60.7 µg/mL).

What about the “MIC C. albicans” value [1] of the same compound?
The value was 16 µM (≈ 30.4 µg/mL).

What about the “MBC E. faecalis” value [2] of the same compound?
Its value is 512 µM (≈ 971 µg/mL).

And the “MIC E. faecalis” value [2]?
Its value is 256 µM (≈ 486 µg/mL).

And the “MBC E. coli” value [3]?
Its value is 64 µM (≈ 121 µg/mL).

And the “MIC E. coli” value [3]?
Its value is 16 µM (≈ 30.4 µg/mL).

What about the “MBC K. pneumoniae” value [4] of the same compound?
Its value is 64 µM (≈ 121 µg/mL).

What about the “MIC K. pneumoniae” value [4] of the same compound?
The value was 32 µM (≈ 60.7 µg/mL).

And the “MBC P. aeruginosa” value [5]?
Its value is 128 µM (≈ 243 µg/mL).

And the “MIC P. aeruginosa” value [5]?
The value was 64 µM (≈ 121 µg/mL).

And the “MBC S. aureus” value [6]?
Its value is 16 µM (≈ 30.4 µg/mL).

What about the “MBC MRSA” value [7] of the same compound?
Its value is 32 µM (≈ 60.7 µg/mL).

What about the “MIC MRSA” value [7] of the same compound?
The value was 8 µM (≈ 15.2 µg/mL).

And the “HC10 (concentration causing 10% red cell lysis)” value (horse erythrocytes)?
Its value is 58.42 µM.

Which results are given for CC[C@H](C)[C@@H]1NC(=O)[C@H](C)NC(=O)[C@@H](NC(=O)[C@H](CCCCN)NC(=O)[C@H](C)NC(=O)[C@H](C)NC(=O)[C@H](CC(C)C)NC(=O)CNC(=O)[C@H](C)NC(=O)[C@@H](NC(=O)[C@H](CC(C)C)NC(=O)[C@@H]2CCCN2C(=O)[C@H](CC(C)C)NC(=O)[C@@H](N)Cc2ccccc2)[C@@H](C)CC)CSSC[C@@H](C(=O)O)NC(=O)[C@H](CCCCN)NC(=O)[C@H](CCCCN)NC(=O)[C@H]([C@@H](C)O)NC1=O [Peptide B1A1] (H-FLPLIAGLAAKCAITKKC-OH; disulfide 12-18)?
MBC C. albicans [1]: 512 µM (≈ 952 µg/mL); MIC C. albicans [1]: 512 µM (≈ 952 µg/mL); MBC E. faecalis [2]: > 512 µM; MIC E. faecalis [2]: > 512 µM; MBC E. coli [3]: > 512 µM; MIC E. coli [3]: 512 µM (≈ 952 µg/mL); MBC K. pneumoniae [4]: > 512 µM; MIC K. pneumoniae [4]: > 512 µM; MBC P. aeruginosa [5]: > 512 µM; MIC P. aeruginosa [5]: > 512 µM; MBC S. aureus [6]: > 512 µM; MBC MRSA [7]: > 512 µM; MIC MRSA [7]: > 512 µM; HC10 (concentration causing 10% red cell lysis) (horse erythrocytes): could not be calculated and >512 µM

Which results are given for CC[C@H](C)[C@@H]1NC(=O)[C@H](C)NC(=O)[C@@H](NC(=O)[C@H](Cc2ccccc2)NC(=O)[C@@H](NC(=O)[C@H](CCCCN)NC(=O)[C@@H]2CCCN2C(=O)[C@H](CC(C)C)NC(=O)[C@@H](N)Cc2ccccc2)[C@@H](C)CC)CSSC[C@@H](C(=O)O)NC(=O)[C@H](CCCCN)NC(=O)[C@H](CCCCN)NC(=O)[C@H]([C@@H](C)O)NC1=O [Peptide B1A2] (H-FLPKIFCAITKKC-OH; disulfide 7-13)?
MBC C. albicans [1]: 512 µM (≈ 773 µg/mL); MIC C. albicans [1]: 512 µM (≈ 773 µg/mL); MBC E. faecalis [2]: > 512 µM; MIC E. faecalis [2]: > 512 µM; MBC E. coli [3]: 256 µM (≈ 387 µg/mL); MIC E. coli [3]: 256 µM (≈ 387 µg/mL); MBC K. pneumoniae [4]: > 512 µM; MIC K. pneumoniae [4]: > 512 µM; MBC P. aeruginosa [5]: > 512 µM; MIC P. aeruginosa [5]: > 512 µM; MBC S. aureus [6]: 256 µM (≈ 387 µg/mL); MBC MRSA [7]: > 512 µM; MIC MRSA [7]: 256 µM (≈ 387 µg/mL); HC10 (concentration causing 10% red cell lysis) (horse erythrocytes): could not be calculated and >512 µM
